Measurements: patent US20220401619A1, “A COLLAGEN SCAFFOLD” (ROYAL COLLEGE OF SURGEONS IN IRELAND, priority 2019, published 2022)

Assay: Antibiotic release profile from scaffolds over 60 days
Format: physicochemical
Text: As shown in FIG. 3(A), in the dual-layer scaffold structure incorporating crosslinked and directly incorporated antibiotic produced as described above, the porous scaffold structure necessary for efficient tissue regeneration was maintained. In addition, the porosity (>98%) and mean pore size, essential for optimal proliferation and differentiation of osteoblasts during bone regeneration, were not compromised after the loading of the drug into the collagen structure. Depending on the incorporation method, different release kinetics of the antibiotic from the materials were obtained. […] At day 10, approximately 90% of the teicoplanin was released when it was directly loaded into the slurry during the CHA scaffold fabrication.

## teicoplanin
Day 10, directly loaded into the slurry during CHA scaffold fabrication
  teicoplanin released: approximately 90%
Day 60, chemically attached (crosslinked) to scaffold
  teicoplanin released: approximately 11%
